GR value data for six cell lines are collected here from the supplement of paper PMC9663587.

Compound in the first assay: CC(=O)c1c(C)c2cnc(Nc3ccc(N4CCN(CCOCCOCCOCCNC(=O)COc5cccc6c5C(=O)N(C5CCC(=O)NC5=O)C6=O)CC4)cn3)nc2n(C2CCCC2)c1=O [BSJ-03-123]
The assay can be described thus: GR value, 72 h; higher = faster growth (1 = untreated, <0 = killing).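 Also: breast cancer and non-malignant breast epithelial lines, nine half-log doses, viable cells counted by Hoechst and LIVE/DEAD dye imaging versus time-zero plates and DMSO controls.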 Particulars: 0.003162 µM.
Turning to HCC38, the GR value was 0.719 GR.

For the cell line HCC70, the GR value came out at 0.898 GR.

HCC1143: the GR value is 0.89 GR.

HCC1395: the GR value came to 0.925 GR.

Still in this assay, the particulars now being: 0.01 µM.
EFM19: the GR value came out at 0.806 GR.

EVSAT: the GR value was determined as 0.922 GR.

As for HCC38, the GR value came out at 0.468 GR.

Consider HCC70, for which the GR value was 1 GR.

For HCC1143, the GR value turned out to be 0.906 GR.

Regarding HCC1395, the GR value came to 0.769 GR.

Staying with this assay, now noted: 0.03162 µM.
With EFM19, the GR value is 0.733 GR.

Turning to EVSAT, the GR value was 0.885 GR.

Consider HCC38, for which the GR value turned out to be 0.463 GR.

For HCC70, the GR value was 0.996 GR.

As to HCC1143, the GR value worked out at 0.858 GR.

With HCC1395, the GR value is 0.767 GR.

Staying with this assay, now noted: 0.1 µM.
As for EFM19, the GR value is 0.717 GR.

With EVSAT, the GR value came out at 0.851 GR.

Consider HCC38, for which the GR value came out at 0.454 GR.

For HCC70, the GR value turned out to be 0.911 GR.

Turning to HCC1143, the GR value came out at 0.861 GR.

Consider HCC1395, for which the GR value was 0.774 GR.

Still in this assay, the particulars now being: 0.3162 µM.
As to EFM19, the GR value was determined as 0.654 GR.

For the cell line EVSAT, the GR value came to 0.819 GR.

For HCC38, the GR value came to 0.419 GR.

Regarding HCC70, the GR value was determined as 0.848 GR.

In the case of HCC1143, the GR value was found to be 0.797 GR.

HCC1395: the GR value worked out at 0.692 GR.

Still in this assay, the particulars now being: 1 µM.
EFM19: the GR value amounted to 0.48 GR.

With EVSAT, the GR value worked out at 0.724 GR.

As to HCC38, the GR value was 0.341 GR.

HCC70: the GR value came out at 0.865 GR.

HCC1143: the GR value was found to be 0.613 GR.

Regarding HCC1395, the GR value was determined as 0.572 GR.

The same assay, now with this note: 3.162 µM.
Take EFM19: the GR value was 0.447 GR.

As for EVSAT, the GR value was found to be 0.67 GR.

Take HCC38: the GR value was determined as 0.306 GR.

As for HCC70, the GR value amounted to 0.754 GR.

On to HCC1143, for which the GR value is 0.481 GR.

As for HCC1395, the GR value came out at 0.534 GR.

The same assay, now with this note: 10 µM.
Turning to EFM19, the GR value stood at 0.117 GR.

Take EVSAT: the GR value was 0.0632 GR.

With HCC38, the GR value was -0.0958 GR.

In the case of HCC70, the GR value is -0.525 GR.

Turning to HCC1143, the GR value stood at 0.028 GR.

As for HCC1395, the GR value was -0.188 GR.

Compound in a further assay: CC(=O)c1c(C)c2cnc(Nc3ccc(N4CCNCC4)cn3)nc2n(C2CCCC2)c1=O
The description is as above. The note with it: 0.0003162 µM.
For the cell line EFM19, the GR value is 1.05 GR.

Take EVSAT: the GR value was 1.02 GR.

As for HCC38, the GR value was 1.03 GR.

As to HCC70, the GR value worked out at 0.988 GR.

As for HCC1143, the GR value amounted to 0.997 GR.

Regarding HCC1395, the GR value was determined as 1.12 GR.

Still in this assay, the particulars now being: 0.001 µM.
EFM19: the GR value was found to be 1.03 GR.

With EVSAT, the GR value was determined as 1 GR.

As to HCC38, the GR value was found to be 1.06 GR.

For HCC70, the GR value stood at 1.07 GR.

For the cell line HCC1143, the GR value was found to be 1.01 GR.

On to HCC1395, for which the GR value is 1.07 GR.

Staying with this assay, now noted: 0.003162 µM.
For the cell line EFM19, the GR value worked out at 1.03 GR.

On to EVSAT, for which the GR value was found to be 0.994 GR.

As to HCC38, the GR value came to 0.926 GR.

In the case of HCC70, the GR value came out at 1.08 GR.

On to HCC1143, for which the GR value was found to be 1.01 GR.

On to HCC1395, for which the GR value is 1.06 GR.

Staying with this assay, now noted: 0.01 µM.
On to EFM19, for which the GR value was 1.02 GR.

Turning to EVSAT, the GR value stood at 0.974 GR.

In the case of HCC38, the GR value was 0.889 GR.

For HCC70, the GR value was 1.07 GR.

With HCC1143, the GR value turned out to be 0.955 GR.

As to HCC1395, the GR value worked out at 0.944 GR.

The assay is the same for the next values; noted with them: 0.03162 µM.
For the cell line EFM19, the GR value came to 0.941 GR.

On to EVSAT, for which the GR value is 0.863 GR.

In the case of HCC38, the GR value came out at 0.604 GR.

Regarding HCC70, the GR value stood at 1.09 GR.

In the case of HCC1143, the GR value was found to be 0.793 GR.

For HCC1395, the GR value is 0.702 GR.

Staying with this assay, now noted: 0.1 µM.
For the cell line EFM19, the GR value was found to be 0.843 GR.

With EVSAT, the GR value was 0.792 GR.

HCC38: the GR value came to 0.398 GR.

Turning to HCC70, the GR value is 0.961 GR.

As to HCC1143, the GR value was determined as 0.652 GR.

Turning to HCC1395, the GR value is 0.495 GR.

Staying with this assay, now noted: 0.3162 µM.
As for EFM19, the GR value turned out to be 0.626 GR.

Take EVSAT: the GR value came out at 0.752 GR.

For HCC38, the GR value was 0.31 GR.

For the cell line HCC70, the GR value worked out at 1.06 GR.

In the case of HCC1143, the GR value was determined as 0.503 GR.

As for HCC1395, the GR value was 0.444 GR.

The assay is the same for the next values; noted with them: 1 µM.
Take EFM19: the GR value turned out to be 0.401 GR.

Take EVSAT: the GR value came to 0.671 GR.

Regarding HCC38, the GR value was 0.239 GR.

Regarding HCC70, the GR value was 1.05 GR.

With HCC1143, the GR value stood at 0.392 GR.

HCC1395: the GR value was determined as 0.386 GR.

Still in this assay, the particulars now being: 3.162 µM.
Turning to EFM19, the GR value came to 0.284 GR.

On to EVSAT, for which the GR value is 0.637 GR.

HCC38: the GR value turned out to be 0.133 GR.

As for HCC70, the GR value was 0.896 GR.

In the case of HCC1143, the GR value is 0.275 GR.

Turning to HCC1395, the GR value came to 0.324 GR.

Compound in the next assay: CCN1CCN(Cc2ccc(Nc3ncc(F)c(-c4cc(F)c5nc(C)n(C(C)C)c5c4)n3)nc2)CC1
Described as above. Particulars: 0.001 µM.
EFM19: the GR value is 0.984 GR.

Consider EVSAT, for which the GR value is 0.973 GR.

With HCC38, the GR value stood at 0.924 GR.

HCC70: the GR value was 1.06 GR.

Regarding HCC1143, the GR value was determined as 0.881 GR.

In the case of HCC1395, the GR value was determined as 0.922 GR.

Still in this assay, the particulars now being: 0.003162 µM.
Consider EFM19, for which the GR value stood at 0.967 GR.

For EVSAT, the GR value was found to be 0.947 GR.

Take HCC38: the GR value was 0.846 GR.

As for HCC70, the GR value stood at 1.38 GR.

With HCC1143, the GR value was found to be 0.924 GR.

On to HCC1395, for which the GR value worked out at 0.928 GR.

Staying with this assay, now noted: 0.01 µM.
For the cell line EFM19, the GR value was 0.802 GR.

EVSAT: the GR value came out at 0.933 GR.

For HCC38, the GR value was found to be 0.738 GR.

As for HCC70, the GR value was 1.24 GR.

Regarding HCC1143, the GR value turned out to be 0.746 GR.

HCC1395: the GR value was found to be 0.734 GR.

Still in this assay, the particulars now being: 0.03162 µM.
Turning to EFM19, the GR value came to 0.442 GR.

EVSAT: the GR value was 0.853 GR.

In the case of HCC38, the GR value was 0.452 GR.

For HCC70, the GR value stood at 1.18 GR.
